Experimental data: US20210085796A1, “ANTICANCER DRUGS AND METHODS OF MAKING AND USING SAME” (YALE UNIVERSITY, priority 2017, published 2021)
“Also recorded” adds a separate entry of the source.

What was measured:
[1] = test system: HeLa cells; test: pH-dependent cell uptake by flow cytometry; assay type: cell-based; settings: 5 μM, 1 hour, pH 7.4 vs pH 6.5
Source text: FIGS. 5A-5B depict representative flow cytometry traces of pH-dependent cell treatments. […] Normalized cell counts (Y-axes) are plotted vs. doxorubicin fluorescence intensity per cell (X-axes).

[2] = Serum stability of prodrug (LCMS, 490 nm absorbance); assay type: in vitro ADME; settings: 50 μM in PBS pH 7.4 with 20% mouse serum, 37° C., 6 hours of incubation
Description: FIG. 4A depicts liquid chromatography data showing the stability of YU241528 in serum.
The prodrug strategies of this invention are thought to impart their benefits during the distribution and cell uptake steps of anticancer therapy. In certain embodiments, a prodrug is stable in the blood for a period sufficient to allow for cell uptake and systemic clearance. To test this, 50 μM YU241528 in a solution of PBS, pH 7.4, containing 20% mouse serum was incubated at 37° C. At regular intervals, aliquots were taken and mixed with 2 volumes of ethanol to precipitate serum proteins, then centrifuged. Supernatants were analyzed by LCMS. […] The predominant peak was identified as YU241528 by mass spectrometry.

[3] = Blood levels after tail vein injection; assay type: in vivo, adult female balb/c mice
Description: Given that the drug's distribution and clearance can be expected to be substantially complete by about 6 hours after administration, in certain embodiments the peak intracellular dose is achieved long before this process might interfere to a significant degree, even assuming the altered metabolite is indeed compromised in its activity. […] In certain embodiments, the serum stability of YU241528 allows for effective therapy. […] In certain embodiments, the prodrug undergoes a different elimination path, as hepatobiliary elimination of weakly-ionic organic substances is sensitive to charge, size, and lipophilicity.

[4] = Reductive activation / doxorubicin release in 5 mM GSH (LCMS); assay type: in vitro ADME; settings: 50 μM, PBS pH 7.4, 5 mM GSH, 37° C.
Description: In certain embodiments, the prodrug releases the active form of the drug once inside a cancer cell. Once inside the cell, drug release can be triggered by reduction of the disulfide bond in the linker. To evaluate the reductive activation of drug release, 50 μM YU241528 in a solution of PBS, pH 7.4, containing 5 mM GSH (a typical intracellular concentration of the predominant biological reducing agent) was incubated at 37° C. Aliquots were taken at regular intervals and analyzed by LCMS.

[5] = test system: MDA-MB-231 breast cancer cells; test: pH-dependent cell growth inhibition (CellTiter-Glo); assay type: cell-based, Human; settings: 6 hours treatment at pH 7.4 or pH 6.2, then 72 hours growth
Description: Cells treated for 6 hours at pH 7.4 (normal physiological pH, X traces) or pH 6.2 (acidic solid tumor pH, Y traces) were subsequently allowed to grow in normal growth medium for 72 hours, then cell viability was evaluated using the CellTiter-Glo assay kit (Promega). Normalized percent cell growth inhibition is plotted on the left side of each panel and IC50 values reported at each pH from non-linear regression analysis.
(§1) In order to evaluate pH-dependent activity, treatments are performed at atypical cell culture conditions. […] Several cell lines have been evaluated using this method and for each, cell seeding density and treatment duration is independently experimentally determined. Each experiment is normalized to sham and complete activity controls for each pH condition.
Human MDA-MB-231 breast cancer cells seeded at low density on tissue culture treated 384-well plates, allowed to adhere and grow in serum-supplemented growth medium for 24 hours, then treated under pH-controlled conditions for 6 hours, and finally washed and grown in fresh growth media for 72 hours were assessed for cell survival using the CellTiter-Glo assay system (Promega) (FIG. 6).

[6] = cited from earlier work
[7] = test system: PEO1 ovarian cancer cells; test: pH-dependent cell growth inhibition, transient treatment; assay type: cell-based; settings: for pH dependence of cell growth inhibition: pH 7.4 vs pH 6.2
Description: FIG. 9 depicts pH-dependent cell growth inhibition of PEO1 ovarian cancer cells in culture, treated transiently with various prodrugs of the invention, as described above.
FIG. 10 depicts pH-dependent cell growth inhibition of PEO1 ovarian cancer cells in culture, treated transiently with an anticancer kinase inhibitor drug, Osimertinib, or a compound of the invention, based on an active core of that drug, YU253673.
as §1
Similar results have been obtained from pH-dependent cell growth inhibition assays with other classes of Drug using the prodrug approach.

[8] = test system: EMT-6 flank tumors; test: In vivo efficacy and toxicity in EMT-6 flank tumor model; parameters: species or system Balb/c mice; settings: IV once daily for 5 days
Source text: FIG. 7 depicts representative in vivo study on the efficacy and toxicity of compounds of the invention. […] Mean tumor volume and mean body weight graphs are shown for groups of 10 tumor-bearing mice.
FIG. 8 depicts the dose dependence of YU241531 (right panel) and YU244206 (left panel) treatments in the EMT-6 tumor model in Balb/c mice.

8-((2-((((2S,3S,4S,6R)-3-hydroxy-2-methyl-6-(((1S,3S)-3,5,12-trihydroxy-3-(2-hydroxyacetyl)-10-methoxy-6,11-dioxo-1,2,3,4,6,11-hexahydrotetracen-1-yl)oxy)tetrahydro-2H-pyran-4-yl)carbamoyl)oxy)ethyl)disulfaneyl)-2,2-dimethyloctanoic acid [YU241528]
pH preference of cell uptake [1]: preferentially taken up by cells at cancerous pH 6.5 versus cells at normal pH 7.4 | release of free doxorubicin / stability in serum [2]: no active doxorubicin is released; also recorded: no free doxorubicin was detected; also recorded: stable in serum | non-compartmental half-life in blood [3]: about 1 hour | level in the blood at 6 hours post injection ([3]; 6 hours): remains at detectable levels | level in the blood at 24 hours post injection ([3]; 24 hours): undetectable | t1/2 of reduction of the disulfide [4]: ~2.7 min

COc1cccc2c1C(=O)c1c(O)c3c(c(O)c1C2=O)C[C@@](O)(C(=O)CO)C[C@@H]3O[C@H]1C[C@H](N)[C@H](O)[C@H](C)O1 [Doxorubicin, reference compound]
pH preference of cell uptake [1]: greater uptake into cells at normal physiologic pH 7.4 than into cells at cancerous pH 6.5 | pH dependence of cell growth inhibition [5]: greater growth inhibition at basic healthy pH | basic pKA of amine group [6]: ~8

C=CC(=O)Nc1cc(Nc2nccc(-c3cn(C)c4ccccc34)n2)c(OC)cc1N(C)CCN(C)C [Osimertinib, reference compound]
pH dependence of cell growth inhibition [7]: slightly lower IC50 value at healthy pH 7.4

COc1cccc2c1C(=O)c1c(O)c3c(c(O)c1C2=O)C[C@@](O)(C(=O)CO)C[C@@H]3O[C@H]1C[C@H](NC(=O)OCCSSCCCCCCCC(=O)O)[C@H](O)[C@H](C)O1 [YU241531, 8-((2-((((2S,3S,4S,6R)-3-hydroxy-2-methyl-6-(((1S,3S)-3,5,12-trihydroxy-3-(2-hydroxyacetyl)-10-methoxy-6,11-dioxo-1,2,3,4,6,11-hexahydrotetracen-1-yl)oxy)tetrahydro-2H-pyran-4-yl)carbamoyl)oxy)ethyl)disulfaneyl)octanoic acid]
pH dependence of cell growth inhibition [5]: greater growth inhibition at acidic tumor pH | body weight loss compared to sham treated controls [8]: no detectable weight loss

COc1cccc2c1C(=O)c1c(O)c3c(c(O)c1C2=O)C[C@@](O)(C(=O)CO)C[C@@H]3O[C@H]1C[C@H](NC(=O)OCCSSCCCc2c(F)c(F)c(O)c(F)c2F)[C@H](O)[C@H](C)O1 [YU244206, 2-((3-(2,3,5,6-tetrafluoro-4-hydroxyphenyl)propyl)disulfaneyl)ethyl ((2S,3S,4S,6R)-3-hydroxy-2-methyl-6-(((1S,3S)-3,5,12-trihydroxy-3-(2-hydroxyacetyl)-10-methoxy-6,11-dioxo-1,2,3,4,6,11-hexahydrotetracen-1-yl)oxy)tetrahydro-2H-pyran-4-yl)carbamate]
pH dependence of cell growth inhibition [5]: greater growth inhibition at acidic tumor pH | body weight loss compared to sham treated controls [8]: no detectable weight loss

C=CC(=O)Nc1cc(Nc2nccc(-c3cn(C)c4ccccc34)n2)c(OC)cc1N(C)CCCc1c(F)c(F)c(O)c(F)c1F [YU253673, N-(4-methoxy-2-(methyl(3-(2,3,5,6-tetrafluoro-4-hydroxyphenyl)propyl)amino)-5-((4-(1-methyl-1H-indol-3-yl)pyrimidin-2-yl)amino)phenyl)acrylamide]
cell growth inhibition at pH 6.2 ([7]; pH 6.2): potent cell growth inhibition | fold greater activity in tumor pH conditions compared with healthy pH conditions ([7]; pH 6.2 vs pH 7.4): more than 30 fold | cell growth inhibition at pH 7.4 ([7]; pH 7.4): no observed activity | pH dependence of cell growth inhibition [7]: far greater activity at tumor pH 6.2
